Results as given in PubChem BioAssay (NCI).
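Compound exposure: 48 hours, 5 concentrations, 96-well plates. TGI marks complete inhibition of growth.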

Experiments:
Assay in all cases: NCI-60 cell line screen, 48 h
HS 578T breast = tested on: HS 578T breast
TK-10 renal = tested on: TK-10 renal
UO-31 renal = tested on: UO-31 renal
NCI/ADR-RES ovarian = tested on: NCI/ADR-RES ovarian
RXF 393 renal = tested on: RXF 393 renal
LOX IMVI melanoma = tested on: LOX IMVI melanoma
T-47D breast = tested on: T-47D breast
SNB-19 CNS = tested on: SNB-19 CNS
SN12C renal = tested on: SN12C renal
NCI-H226 lung = tested on: NCI-H226 lung
HCC-2998 colon = tested on: HCC-2998 colon
U251 CNS = tested on: U251 CNS
COLO 205 colon = tested on: COLO 205 colon
OVCAR-4 ovarian = tested on: OVCAR-4 ovarian
CAKI-1 renal = tested on: CAKI-1 renal
SNB-75 CNS = tested on: SNB-75 CNS
MCF7 breast = tested on: MCF7 breast
MDA-MB-435 = tested on: MDA-MB-435
BT-549 breast = tested on: BT-549 breast
A498 renal = tested on: A498 renal
SR leukemia = tested on: SR leukemia
MDA-MB-231 breast = tested on: MDA-MB-231 breast
HCT-116 colon = tested on: HCT-116 colon
SF-295 CNS = tested on: SF-295 CNS
NCI-H460 lung = tested on: NCI-H460 lung
UACC-62 melanoma = tested on: UACC-62 melanoma
NCI-H522 lung = tested on: NCI-H522 lung
PC-3 prostate = tested on: PC-3 prostate
RPMI-8226 leukemia = tested on: RPMI-8226 leukemia
EKVX NSCLC = tested on: EKVX NSCLC
SK-MEL-28 melanoma = tested on: SK-MEL-28 melanoma
HCT-15 colon = tested on: HCT-15 colon
CCRF-CEM leukemia = tested on: CCRF-CEM leukemia
DU-145 prostate = tested on: DU-145 prostate
SK-MEL-5 melanoma = tested on: SK-MEL-5 melanoma
OVCAR-5 ovarian = tested on: OVCAR-5 ovarian
SF-268 CNS = tested on: SF-268 CNS
OVCAR-8 ovarian = tested on: OVCAR-8 ovarian
ACHN renal = tested on: ACHN renal
A549 NSCLC = tested on: A549 NSCLC
MDA-N = tested on: MDA-N
IGROV1 ovarian = tested on: IGROV1 ovarian
MALME-3M melanoma = tested on: MALME-3M melanoma
K-562 leukemia = tested on: K-562 leukemia
HOP-62 NSCLC = tested on: HOP-62 NSCLC
M14 melanoma = tested on: M14 melanoma
HT29 colon = tested on: HT29 colon
SW-620 colon = tested on: SW-620 colon
786-0 renal = tested on: 786-0 renal
OVCAR-3 ovarian = tested on: OVCAR-3 ovarian
MOLT-4 leukemia = tested on: MOLT-4 leukemia
SK-OV-3 ovarian = tested on: SK-OV-3 ovarian
UACC-257 melanoma = tested on: UACC-257 melanoma
SK-MEL-2 melanoma = tested on: SK-MEL-2 melanoma
KM12 colon = tested on: KM12 colon
HL-60(TB) leukemia = tested on: HL-60(TB) leukemia
SF-539 CNS = tested on: SF-539 CNS
HOP-92 NSCLC = tested on: HOP-92 NSCLC
NCI-H23 lung = tested on: NCI-H23 lung

Measured: TGI

O=C1c2cc(Cl)ccc2NC(=NC2CCCC2)C2CSCN12 (centres undefined)
not listed: HL-60(TB) leukemia | SF-539 CNS | HOP-92 NSCLC | NCI-H23 lung
> 100 µM: all other assays above

O=C1CC2C(=O)c3ccccc3CC2c2ccccc21 (centres undefined)
69.3 µM: MOLT-4 leukemia
55.3 µM: MDA-MB-435
81.6 µM: SR leukemia
62.6 µM: HL-60(TB) leukemia
75.2 µM: UACC-257 melanoma
75 µM: SNB-75 CNS
87.7 µM: T-47D breast
64 µM: RPMI-8226 leukemia
not listed: NCI/ADR-RES ovarian | RXF 393 renal | HCC-2998 colon | COLO 205 colon | CAKI-1 renal | CCRF-CEM leukemia | SK-MEL-5 melanoma | NCI-H23 lung
> 100 µM: all other assays above

CN(C)c1ccc(/C=C2\N=C(NNc3ccccc3)NC2=O)cc1
57.1 µM: NCI-H522 lung
51.3 µM: HOP-92 NSCLC
42.1 µM: A498 renal
44.6 µM: SN12C renal
65.3 µM: NCI-H23 lung
68.1 µM: EKVX NSCLC
27.3 µM: U251 CNS
35 µM: OVCAR-3 ovarian
59.1 µM: MDA-MB-435
38.5 µM: UACC-257 melanoma
40.1 µM: MDA-MB-231 breast | RPMI-8226 leukemia
32.6 µM: KM12 colon
38.8 µM: T-47D breast
92.4 µM: LOX IMVI melanoma
83.2 µM: BT-549 breast
52.7 µM: NCI-H460 lung
29 µM: COLO 205 colon
82.3 µM: SW-620 colon
43.3 µM: SF-539 CNS
71.4 µM: SK-MEL-28 melanoma
61.9 µM: ACHN renal
29.3 µM: PC-3 prostate
67.2 µM: TK-10 renal
41.9 µM: MCF7 breast
50.2 µM: 786-0 renal
44 µM: SK-MEL-2 melanoma
83.4 µM: SF-295 CNS
30.9 µM: HCC-2998 colon
80.6 µM: IGROV1 ovarian
78.9 µM: RXF 393 renal | SNB-75 CNS
not listed: NCI-H226 lung | SR leukemia | SK-MEL-5 melanoma | K-562 leukemia | HL-60(TB) leukemia
> 100 µM: all other assays above

[O-][N+](=Nc1ccccc1CO)c1ccccc1CO
not listed: SF-295 CNS | ACHN renal | IGROV1 ovarian | HOP-62 NSCLC | HOP-92 NSCLC
> 100 µM: all other assays above
